{"source": "patent US9181290B2", "about": "“Inhibition of biofilm formation by 1,2,3,4,6-penta-O-galloyl-D-glucopyranose” (CHANG GUNG UNIVERSITY, priority 2011, dated 2015)", "key": {"[1]": {"tested_on": "S. aureus SA113", "test": "Adherence assay: β-PGG added at different times after inoculation, biofilm by crystal violet at 6 hours", "format": "cell-based, Staphylococcus aureus", "conditions": "for reduction of biofilm formation: read at 6 hours", "experimental": "At 6 hours after seeding, the wells were subjected to crystal violet staining to determine the amounts of biofilm formed on the inner surfaces of the wells of polystyrene microtiter plates or on the polycarbonate discs."}, "[2]": {"tested_on": "S. epidermidis ATCC 35547", "test": "Growth (A578) and biofilm (A595) in polystyrene plates", "format": "cell-based, Staphylococcus epidermidis", "conditions": "12.5 μM β-PGG, 6 hr", "experimental": "(§1) In addition to the above S. aureus strains, S. epidermidis ATCC 35547 and S. epidermidis RP62A (ATCC 35984) were also studied for comparison.\n(§2) An overnight bacterial culture was 200-fold diluted with TSBg, and a 200 μL aliquot of the diluted culture was seeded into each well of 96-well polystyrene microtiter plates and incubated at 37° C. for a designated period of time. Cell growth was determined by measuring the absorbance at 578 nm (A578) with a microtiter plate reader (SpectraMax 340, Molecular Devices). After washing with PBS twice to remove suspended cells, the wells were stained with 0.1% (w/v) crystal violet in 10% ethanol and then treated with 30% acetic acid in dH2O, followed by detecting the absorbance at 595 nm (A595) with the microtiter plate reader to quantify the amount of biofilm formed on polystyrene surface."}, "[3]": {"tested_on": "S. aureus SA113Δica (ATCC 35556Δica::tet)", "test": "Biofilm formation by ica deletion mutant on polystyrene surface", "format": "cell-based, Staphylococcus aureus", "conditions": "6 hrs", "experimental": "as §2"}, "[4]": {"tested_on": "S. aureus SA113", "test": "Biofilm formation on β-PGG/polyaniline-coated silicon rubber discs (safranin staining)", "format": "cell-based", "conditions": "Staphylococcus aureus, polyaniline carrier, 24 hrs", "experimental": "(§3) β-PGG (stock conc.: 8.89 μg/mL in DMSO) in various amounts was evenly mixed with a fixed amount of polyaniline (40 μL, 3 mg/mL in DMSO) so as to provide a 100 μL β-PGG/polyaniline mixture with a final β-PGG concentration of 0.47 μM, 0.94 μM, 1.89 μM, 3.78 μM, 4.73 μM or 5.67 μM. The resultant β-PGG/polyaniline mixture was coated on the inner surfaces of the wells of 96-well polystyrene microtiter plates in an amount of 100 μL per well. After β-PGG coating, the plates were dried in a vacuum chamber, followed by UV sterilization for 30 min. An overnight culture of S. aureus SA113 was 200-fold diluted with TSBg, and a 200 μL aliquot of the diluted culture was seeded into each well of the β-PGG-coated microtiter plates. After culturing at 37° C. for 24 hrs, the wells were washed twice with PBS, and then examined by safranin staining according to a method described earlier (Christine Heilmann et al. (1996), Infect. Immun., 64 (1):277-282), so as to quantify the amount of biofilm formed on the β-PGG-coated polystyrene surface.\nMeanwhile, 6-mm diameter silicon rubber discs, which were cut from a sheet of 2-mm thick silicon rubber with a paper punch, were also coated with the resultant β-PGG mixture in an amount of 100 μL per disc. […] After incubation at 37° C. for 24 hrs, each silicon rubber disc was subjected to safranin staining, so as to quantify the amount of biofilm formed thereon."}, "[5]": {"tested_on": "polysaccharide intercellular adhesion (PIA) production by S. aureus SA113", "test": "Quantification of PIA by chemiluminescence (WGA-biotin/HRP-streptavidin)", "format": "cell-based, Staphylococcus aureus", "conditions": "6 hrs; for decrease of the amount of PIA formed on the cell surface: densitometer, untreated = 100%", "experimental": "The amount of PIA was determined by chemiluminescence detection using horseradish peroxidase-conjugated streptavidin (Pierce) according to a method described elsewhere (S. Schlag et al. (2007), supra). Briefly, a tested bacterial strain prepared in TSBg broth was added with β-PGG at a designated concentration and then cultured in a 9 cm petri dish for 6 hrs. The bacterial cells grown in the petri dish were collected by scraping, followed by centrifugation, and the resultant cell pellets were redissolved by addition of 3 mL of 0.5 M EDTA (pH 8.0) for every gram (wet weight) of cell pellet, followed by boiling at 100° C. for 10 min. After centrifugation at 10,000 g for 30 min, the resultant supernatant was 100-fold diluted. An 80 μL aliquot of the diluted supernatant was incubated with 20 μL of proteinase K (10 mg/mL, in dH2O) at 37° C. for 2 hrs, followed by blotting onto a PVDF membrane (Millipore) using a 96-well dot-blot apparatus. After blotting, the membrane was dried and soaked in a first blocking buffer (containing 3% bovine serum albumin (BSA) and 0.05% Tween-20 in PBS), followed by incubation at room temperature for 1 hr in the first blocking buffer containing 0.8 μg/mL wheat germ agglutinin conjugated with biotin (WGA-biotin, Sigma-Aldrich). After sequentially washing with the first blocking buffer and a second blocking buffer (containing 1% BSA and 0.05% Tween-20 in PBS), the membrane was incubated with horseradish peroxidase-conjugated streptavidin (Pierce) for 30 min, and washed 4 times with the first blocking buffer, followed by incubation with 1 mL of a substrate reagent (Luminol/Enhancer solution and Stable Peroxide solution, Pierce) at room temperature for 5 min. Thereafter, the membrane was detected by autoradiography using X-ray film, and the intensity of each spot formed on the X-ray film was quantified using a densitometer (LAS-3000, Fujifilm). The relative PIA amount produced by the tested bacterial strain was determined based on the detected intensity, with the amount of PIA from bacterial cells without PGG treatment being set as 100%.\nTo detect PIA in culture medium, the medium was concentrated using an Amicon-Ultra4 centrifuge filter (Millipore, Billerica, Mass., USA) prior to extraction.\nSimilar experiments were performed using four clinical isolates of S. aureus, namely MSSA strains SA13 and SA288, and MRSA strains SA44 and SA 130."}, "[6]": {"tested_on": "S. carnosus TM300", "test": "Growth (A578) and biofilm (A595) in polystyrene plates", "format": "cell-based", "conditions": "12.5 μM β-PGG, 6 hr", "experimental": "as §1, §2"}, "[7]": {"tested_on": "S aureus SA113", "test": "Bacterial attachment onto glass coverslips (data not shown)", "format": "cell-based, Staphylococcus aureus"}, "[8]": {"tested_on": "S. aureus SA113", "test": "Biofilm formation on β-PGG/polyaniline-coated polystyrene wells (safranin staining)", "format": "cell-based, Staphylococcus aureus", "conditions": "polyaniline carrier, 24 hrs", "experimental": "as §3"}}, "data": [{"smiles": "O=C(OC[C@H]1O[C@@H](OC(=O)c2cc(O)c(O)c(O)c2)[C@H](OC(=O)c2cc(O)c(O)c(O)c2)[C@@H](OC(=O)c2cc(O)c(O)c(O)c2)[C@@H]1OC(=O)c1cc(O)c(O)c(O)c1)c1cc(O)c(O)c(O)c1", "note": "[β-PGG, 1,2,3,4,6-penta-O-galloyl-β-D-glucopyranose]", "values": [{"measurement": "reduction of biofilm formation", "setting": "[1]; 6.25 μM added at 0.5 hr after inoculation, DMSO = 100%", "result": 62, "unit": "%"}, {"measurement": "reduction of biofilm formation", "setting": "[1]; 6.25 μM added at 1 hr after inoculation, DMSO = 100%", "result": 19, "unit": "%"}, {"measurement": "reduction of biofilm formation", "setting": "[1]; 12.5 μM added at 0.5 and 1 hr after inoculation", "result": "more than 90%"}, {"measurement": "inhibition of biofilm formation", "setting": "[1]; added at 1.5 and 2 hr after inoculation", "result": "not inhibited"}, {"measurement": "time of addition after seeding at which β-PGG is effective", "setting": "[1]; added into the culture medium after seeding", "result": "≤ 1", "unit": "h"}, {"measurement": "Growth (A578)", "setting": "[2]; 0 μM: 0.50 ± 0.01", "result": "0.42 ± 0.01"}, {"measurement": "Biofilm (A595)", "setting": "[2]; 0 μM: 1.42 ± 0.09", "result": "0.15 ± 0.11"}, {"measurement": "effect on biofilm formation by the mutant, polystyrene surface", "setting": "[3]; 1.56 μM", "result": "did not affect the biofilm formation"}, {"measurement": "decrease of the amount of biofilm, polystyrene surface", "setting": "[3]; 3.13 μM", "result": 72, "unit": "%"}, {"measurement": "inhibition at 1.9 µM", "setting": "[4]; coating with 1.9 μM β-PGG", "result": 62, "unit": "%"}, {"measurement": "inhibition at 5.7 µM", "setting": "[4]; coating with 5.7 μM β-PGG", "result": 85, "unit": "%"}, {"measurement": "decrease of the amount of PIA formed on the cell surface", "setting": "[5]; 3.13 μM", "result": 7, "unit": "%"}, {"measurement": "decrease of the amount of PIA formed on the cell surface", "setting": "[5]; 12.5 μM", "result": 58, "unit": "%"}, {"measurement": "decrease of the amount of PIA formed on the cell surface", "setting": "[5]; 50 μM", "result": 87, "unit": "%"}, {"measurement": "PIA production (extracted from bacterial cells)", "setting": "[5]; 3.13, 12.5 and 50 μM", "result": "PIA production was inhibited"}, {"measurement": "PIA released into the culture medium", "setting": "[5]; 3.13, 12.5 and 50 μM", "result": "decreased after β-PGG treatment in a dose-dependent manner"}, {"measurement": "Biofilm (A595)", "setting": "[6]; 0 μM: 0.12 ± 0.01, non-biofilm negative control strain", "result": "0.10 ± 0.01"}, {"measurement": "Growth (A578)", "setting": "[6]; 0 μM: 0.69 ± 0.02", "result": "0.70 ± 0.01"}, {"measurement": "bacterial attachment onto glass coverslips", "setting": "[7]", "result": "inhibited bacterial attachment onto glass coverslips"}, {"measurement": "biofilm formation on coated polystyrene wells", "setting": "[8]; coated with β-PGG at 1.9 μM or lower", "result": "slightly affected"}, {"measurement": "decrease of the amount of biofilm on coated polystyrene wells", "setting": "[8]; coated with β-PGG at a concentration higher than 3.8 μM", "result": "more than 90%"}]}]}
